Source: PubChem BioAssay (NCI)
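Grown in 96-well plates, cells were treated for 48 hours with each compound at five concentrations. Insufficient inhibition: endpoint recorded as highest concentration tested. Here, GI50 denotes the concentration required for 50% inhibition of growth. TGI denotes the concentration required for complete inhibition of growth.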

Legend:
Assay in all cases: NCI tumour cell line growth inhibition, 48 h
OVCAR-3 ovarian = test system: OVCAR-3 ovarian
HOP-92 NSCLC = test system: HOP-92 NSCLC
SK-OV-3 ovarian = test system: SK-OV-3 ovarian
OVCAR-5 ovarian = test system: OVCAR-5 ovarian
NCI/ADR-RES ovarian = test system: NCI/ADR-RES ovarian
K-562 leukemia = test system: K-562 leukemia
KM12 colon = test system: KM12 colon
HL-60(TB) leukemia = test system: HL-60(TB) leukemia
BT-549 breast = test system: BT-549 breast
SK-MEL-5 melanoma = test system: SK-MEL-5 melanoma
OVCAR-4 ovarian = test system: OVCAR-4 ovarian
MDA-MB-231 breast = test system: MDA-MB-231 breast
SK-MEL-28 melanoma = test system: SK-MEL-28 melanoma
NCI-H23 lung = test system: NCI-H23 lung
UACC-62 melanoma = test system: UACC-62 melanoma
HCC-2998 colon = test system: HCC-2998 colon
786-0 renal = test system: 786-0 renal
EKVX NSCLC = test system: EKVX NSCLC
M14 melanoma = test system: M14 melanoma
HS 578T breast = test system: HS 578T breast
MDA-MB-435 = test system: MDA-MB-435
LOX IMVI melanoma = test system: LOX IMVI melanoma
UACC-257 melanoma = test system: UACC-257 melanoma
RPMI-8226 leukemia = test system: RPMI-8226 leukemia
PC-3 prostate = test system: PC-3 prostate
T-47D breast = test system: T-47D breast
SNB-19 CNS = test system: SNB-19 CNS
NCI-H226 lung = test system: NCI-H226 lung
SF-268 CNS = test system: SF-268 CNS
COLO 205 colon = test system: COLO 205 colon
RXF 393 renal = test system: RXF 393 renal
A549 NSCLC = test system: A549 NSCLC
OVCAR-8 ovarian = test system: OVCAR-8 ovarian
MALME-3M melanoma = test system: MALME-3M melanoma
HT29 colon = test system: HT29 colon
U251 CNS = test system: U251 CNS
HOP-62 NSCLC = test system: HOP-62 NSCLC
SF-295 CNS = test system: SF-295 CNS
MCF7 breast = test system: MCF7 breast
SF-539 CNS = test system: SF-539 CNS
SR leukemia = test system: SR leukemia
CCRF-CEM leukemia = test system: CCRF-CEM leukemia
ACHN renal = test system: ACHN renal
A498 renal = test system: A498 renal
HCT-116 colon = test system: HCT-116 colon
NCI-H522 lung = test system: NCI-H522 lung
SNB-75 CNS = test system: SNB-75 CNS
SN12C renal = test system: SN12C renal
SK-MEL-2 melanoma = test system: SK-MEL-2 melanoma
UO-31 renal = test system: UO-31 renal
TK-10 renal = test system: TK-10 renal
HCT-15 colon = test system: HCT-15 colon

## CC(C)[C@]12O[C@H]1[C@@H]1O[C@]13[C@]1(O[C@H]1C[C@H]1C4=C(CC[C@@]13C)C(=O)OC4)[C@@H]2OC(=O)CN(C)C
OVCAR-3 ovarian
  GI50: 0.0208 µM
  TGI: 0.0633 µM
HOP-92 NSCLC
  GI50: 0.0383 µM
SK-OV-3 ovarian
  GI50: 0.0485 µM
  TGI: > 100 µM
OVCAR-5 ovarian
  GI50: 0.0491 µM
  TGI: > 100 µM
NCI/ADR-RES ovarian
  GI50: 0.0481 µM
  TGI: > 100 µM
K-562 leukemia
  GI50: 0.0283 µM
  TGI: > 100 µM
KM12 colon
  GI50: 0.208 µM
  TGI: 2.64 µM
HL-60(TB) leukemia
  GI50: 0.0153 µM
  TGI: 0.118 µM
BT-549 breast
  GI50: 0.0184 µM
  TGI: 0.0564 µM
SK-MEL-5 melanoma
  GI50: 0.0152 µM
  TGI: 0.0396 µM
OVCAR-4 ovarian
  GI50: 0.0326 µM
  TGI: > 46.2 µM
MDA-MB-231 breast
  GI50: 0.0578 µM
  TGI: > 100 µM
SK-MEL-28 melanoma
  GI50: 0.0207 µM
  TGI: 0.0615 µM
NCI-H23 lung
  GI50: 0.0116 µM
UACC-62 melanoma
  GI50: 0.0228 µM
  TGI: 0.0724 µM
HCC-2998 colon
  GI50: 0.0102 µM
  TGI: 0.044 µM
786-0 renal
  GI50: 0.0326 µM
  TGI: > 100 µM
EKVX NSCLC
  GI50: 0.11 µM
  TGI: > 100 µM
M14 melanoma
  GI50: 0.017 µM
  TGI: 0.0373 µM
HS 578T breast
  GI50: 0.0227 µM
  TGI: 0.0889 µM
MDA-MB-435
  GI50: 0.0176 µM
  TGI: 0.0748 µM
LOX IMVI melanoma
  GI50: 0.0101 µM
  TGI: > 100 µM
UACC-257 melanoma
  GI50: 0.0175 µM
  TGI: 0.0563 µM
RPMI-8226 leukemia
  GI50: 0.0181 µM
  TGI: > 100 µM
PC-3 prostate
  GI50: 0.0218 µM
  TGI: > 100 µM
T-47D breast
  GI50: 0.034 µM
  TGI: > 100 µM
SNB-19 CNS
  GI50: 0.286 µM
  TGI: > 100 µM
NCI-H226 lung
  GI50: 0.0191 µM
  TGI: 0.178 µM
SF-268 CNS
  GI50: 0.037 µM
  TGI: 0.367 µM
COLO 205 colon
  GI50: 0.017 µM
  TGI: 0.0424 µM
RXF 393 renal
  GI50: 0.0157 µM
  TGI: 0.0336 µM
A549 NSCLC
  GI50: 0.0587 µM
OVCAR-8 ovarian
  GI50: 0.0336 µM
  TGI: > 100 µM
MALME-3M melanoma
  GI50: 0.0193 µM
  TGI: 0.0733 µM
HT29 colon
  GI50: 0.0179 µM
  TGI: > 100 µM
U251 CNS
  GI50: 0.0488 µM
  TGI: > 100 µM
HOP-62 NSCLC
  GI50: 0.0314 µM
SF-295 CNS
  GI50: 0.0777 µM
  TGI: > 100 µM
MCF7 breast
  GI50: 0.022 µM
  TGI: > 100 µM
SF-539 CNS
  GI50: 0.0411 µM
  TGI: 0.332 µM
SR leukemia
  GI50: 0.0143 µM
  TGI: 0.189 µM
CCRF-CEM leukemia
  GI50: 0.0315 µM
ACHN renal
  GI50: 0.021 µM
  TGI: > 100 µM
A498 renal
  GI50: 0.0161 µM
  TGI: 0.0483 µM
HCT-116 colon
  GI50: 0.0128 µM
  TGI: > 100 µM
NCI-H522 lung
  GI50: 0.0216 µM
  TGI: 0.11 µM
SNB-75 CNS
  GI50: 0.0286 µM
  TGI: 0.141 µM
SN12C renal
  GI50: 0.0309 µM
  TGI: > 100 µM
SK-MEL-2 melanoma
  GI50: 0.0267 µM
  TGI: 0.0732 µM
UO-31 renal
  GI50: 0.0146 µM
  TGI: > 100 µM
TK-10 renal
  GI50: 0.048 µM
  TGI: > 100 µM
HCT-15 colon
  GI50: 0.0291 µM
  TGI: > 100 µM
